Assay results from ChEMBL document CHEMBL4765344, “Expanding the anticancer potential of 1,2,3-triazoles via simultaneously targeting Cyclooxygenase-2, 15-lipoxygenase and tumor-associated carbonic anhydrases” (Eur J Med Chem, 2020).

Columns and labels:
A549 [1] = experiment: Induction of apoptosis in human A549 cells assessed as caspase-9 expression at IC50 by ELISA (reference value: […] +/- […] ng/ml); assay type: functional
MCF7 [2] = experiment: Induction of apoptosis in human MCF7 cells assessed as Bax expression at IC50 by ELISA (reference value: 45.46 +/- 3.6 pg/ml); assay type: functional
MCF7 [3] = experiment: Induction of apoptosis in human MCF7 cells assessed as fold change in Bax expression at IC50 by ELISA relative to control; assay type: functional
MCF7 [4] = experiment: Induction of apoptosis in human MCF7 cells assessed as fold change in Bcl-2 expression at IC50 by ELISA relative to control; assay type: functional
A549 [5] = experiment: Induction of apoptosis in human A549 cells assessed as fold change in Bax expression at IC50 by ELISA relative to control; assay type: functional
A549 [6] = experiment: Induction of cell cycle arrest in human A549 cells assessed as accumulation at G0/G1 phase at IC50 measured after 24 hrs by propidium iodide/RNase staining based flow cytometry (reference value: 58.26%); assay type: functional
A549 [7] = experiment: Induction of apoptosis in human A549 cells assessed as necrotic cells at IC50 measured after 24 hrs by annexin V-FITC staining based flow cytometry (reference value: 1.01%); assay type: functional
MCF7 [8] = experiment: Induction of cell cycle arrest in human MCF7 cells assessed as accumulation at G0/G1 phase at IC50 measured after 24 hrs by propidium iodide/RNase staining based flow cytometry (reference value: 51.72%); assay type: functional
MCF7 [9] = experiment: Induction of apoptosis in human MCF7 cells assessed as Bcl-2 expression at IC50 by ELISA (reference value: 7.49 +/- 0.1 ng/ml); assay type: functional
A549 [10] = experiment: Induction of apoptosis in human A549 cells assessed as fold change in caspase-9 expression at IC50 by ELISA relative to control; assay type: functional
MCF7 [11] = experiment: Antitumor activity against human MCF7 cells xenografted in BALB/c mouse assessed as reduction in tumor volume at 23 mg/kg, ip administered thrice a week for 28 days by vernier caliper analysis; assay type: functional; conditions: time 28 day
MCF7 [12] = experiment: Induction of apoptosis in human MCF-7 cells assessed as total apoptotic cells at IC50 measured after 24 hrs by Annexin V-FITC/propidium iodide staining based flow cytometry (reference value: 0.69%); assay type: functional
[13] = Toxicity in BALB/c mouse xenografted with human MCF7 cells assessed as body weight at 23 mg/kg, ip administered thrice a week for 28 days measured on day 28 (reference value: 31.3 gms); assay type: organism-based; conditions: in vivo, 672 h, time 28 day
MCF7 [14] = experiment: Antiproliferative activity against human MCF-7 cells assessed as cell growth inhibition measured after 72 hrs by SRB assay; assay type: functional, cell-based; conditions: MCF7, 72 h
MCF7 [15] = experiment: Induction of cell cycle arrest in human MCF7 cells assessed as increase in accumulation at pre-G1 phase at IC50 measured after 24 hrs by propidium iodide/RNase staining based flow cytometry relative to control; assay type: functional
MCF7 [16] = experiment: Induction of cell cycle arrest in human MCF7 cells assessed as accumulation at G2/M phase at IC50 measured after 24 hrs by propidium iodide/RNase staining based flow cytometry (reference value: 18.4%); assay type: functional
A549 [17] = experiment: Induction of apoptosis in human A549 cells assessed as late apoptotic cells at IC50 measured after 24 hrs by annexin V-FITC staining based flow cytometry (reference value: […]); assay type: functional
[18] = Toxicity in ip dosed BALB/c mouse measured for 3 days; assay type: organism-based; conditions: in vivo, time 3 day
A549 [19] = experiment: Induction of apoptosis in human A549 cells assessed as Bax expression at IC50 by ELISA (reference value: 42.16 +/-6.2 pg/ml); assay type: functional
WI-38 = experiment: Cytotoxicity against human WI-38 cells assessed as reduction in cell viability after 72 hrs by SRB assay; assay type: cell-based; conditions: WI-38, 72 h
A549 [20] = experiment: Induction of cell cycle arrest in human A549 cells assessed as accumulation at G2/M phase at IC50 measured after 24 hrs by propidium iodide/RNase staining based flow cytometry (reference value: 9.86%); assay type: functional
MCF7 [21] = experiment: Induction of cell cycle arrest in human MCF7 cells assessed as accumulation at pre-G1 phase at IC50 measured after 24 hrs by propidium iodide/RNase staining based flow cytometry (reference value: 1.96%); assay type: functional
MCF7 [22] = experiment: Induction of apoptosis in human MCF-7 cells assessed as necrotic cells at IC50 measured after 24 hrs by Annexin V-FITC/propidium iodide staining based flow cytometry (reference value: 1.27%); assay type: functional
A549 [23] = experiment: Antiproliferative activity against human A549 cells assessed as cell growth inhibition measured after 72 hrs by SRB assay; assay type: functional, cell-based; conditions: A549, 72 h
A549 [24] = experiment: Induction of cell cycle arrest in human A549 cells assessed as accumulation at S phase at IC50 measured after 24 hrs by propidium iodide/RNase staining based flow cytometry (reference value: 31.88%); assay type: functional
HepG2 [25] = experiment: Antiproliferative activity against human HepG2 cells assessed as inhibition of cell growth at 100 microM measured after 72 hrs by SRB assay; assay type: functional
MCF7 [26] = experiment: Induction of apoptosis in human MCF7 cells assessed as fold change in caspase-9 expression at IC50 by ELISA relative to control; assay type: functional
A549 [27] = experiment: Induction of apoptosis in human A549 cells assessed as total apoptotic cells at IC50 measured after 24 hrs by Annexin V-FITC/propidium iodide staining based flow cytometry (reference value: 0.92%); assay type: functional
A549 [28] = experiment: Induction of apoptosis in human A549 cells assessed as early apoptotic cells at IC50 measured after 24 hrs by annexin V-FITC staining based flow cytometry (reference value: 0.63%); assay type: functional
MCF7 [29] = experiment: Induction of apoptosis in human MCF7 cells assessed as caspase-9 expression at IC50 by ELISA (reference value: 1.77 +/- 0.1 ng/ml); assay type: functional
A549 [30] = experiment: Antiproliferative activity against human A549 cells assessed as inhibition of cell growth at 100 microM measured after 72 hrs by SRB assay; assay type: functional
MCF7 [31] = experiment: Induction of cell cycle arrest in human MCF7 cells assessed as reduction in accumulation at G0/G1 phase at IC50 measured after 24 hrs by propidium iodide/RNase staining based flow cytometry relative to control; assay type: functional
A549 [32] = experiment: Induction of apoptosis in human A549 cells assessed as Bcl2 expression at IC50 by ELISA (reference value: 9.04 +/-0.1 ng/ml); assay type: functional
MCF7 [33] = experiment: Induction of apoptosis in human MCF-7 cells assessed as late apoptotic cells at IC50 measured after 24 hrs by Annexin V-FITC/propidium iodide staining based flow cytometry (reference value: […]); assay type: functional
HepG2 [34] = experiment: Antiproliferative activity against human HepG2 cells assessed as cell growth inhibition measured after 72 hrs by SRB assay; assay type: functional, cell-based; conditions: HepG2, 72 h
MCF7 [35] = experiment: Antiproliferative activity against human MCF-7 cells assessed as inhibition of cell growth at 100 microM measured after 72 hrs by SRB assay; assay type: functional
MCF7 [36] = experiment: Induction of cell cycle arrest in human MCF7 cells assessed as accumulation at S phase at IC50 measured after 24 hrs by propidium iodide/RNase staining based flow cytometry (reference value: 29.88%); assay type: functional
MCF7 [37] = experiment: Induction of cell cycle arrest in human MCF7 cells assessed as increase in accumulation at G2/M phase at IC50 measured after 24 hrs by propidium iodide/RNase staining based flow cytometry relative to control; assay type: functional
MCF7 [38] = experiment: Induction of apoptosis in human MCF-7 cells assessed as early apoptotic cells at IC50 measured after 24 hrs by Annexin V-FITC/propidium iodide staining based flow cytometry (reference value: 0.4%); assay type: functional
A549 [39] = experiment: Induction of apoptosis in human A549 cells assessed as fold change in Bcl2 expression at IC50 by ELISA relative to control; assay type: functional
A549 [40] = experiment: Induction of cell cycle arrest in human A549 cells assessed as accumulation at pre-G1 phase at IC50 measured after 24 hrs by propidium iodide/RNase staining based flow cytometry (reference value: 1.93%); assay type: functional

## O=c1[nH]cc(F)c(=O)[nH]1 [FLUOROURACIL]
A549 [1]
  Activity: 13.98 ng/mL
MCF7 [2]
  Activity: 289.9 pg/mL
MCF7 [3]
  fold change (FC): 6.37
MCF7 [4]
  fold change (FC): 0.3
A549 [5]
  fold change (FC): 8.93
A549 [6]
  Activity: 36.47%
A549 [7]
  Activity: 3.11%
MCF7 [8]
  Activity: 34.09%
MCF7 [9]
  Activity: 2.23 ng/mL
A549 [10]
  fold change (FC): 11.63
MCF7 [11]
  Activity: 0.41 cm3
MCF7 [12]
  Activity: 24.97%
[13]
  Activity: 24.5 g
MCF7 [14]
  IC50: 590 nM
MCF7 [15]
  fold change (FC): 14
MCF7 [16]
  Activity: 42.07%
A549 [17]
  Activity: 20.68%
[18]
  LD50 at 72 h: 57.2 mg/kg
A549 [19]
  Activity: 376.9 pg/mL
WI-38
  IC50: 78500 nM
A549 [20]
  Activity: 37.82%
MCF7 [21]
  Activity: 27.52%
MCF7 [22]
  Activity: 2.55%
A549 [23]
  IC50: 690 nM
A549 [24]
  Activity: 25.71%
HepG2 [25]
  inhibition at 100 µM: 80.7%
MCF7 [26]
  fold change (FC): 11.8
A549 [27]
  Activity: 24.97%
A549 [28]
  Activity: 4.29%
MCF7 [29]
  Activity: 20.87 ng/mL
A549 [30]
  inhibition at 100 µM: 89.3%
MCF7 [31]
  fold change (FC): 1.5
A549 [32]
  Activity: 6.21 ng/mL
MCF7 [33]
  Activity: 17.71%
HepG2 [34]
  IC50: 520 nM
MCF7 [35]
  inhibition at 100 µM: 90.7%
MCF7 [36]
  Activity: 23.84%
MCF7 [37]
  fold change (FC): 2.3
MCF7 [38]
  Activity: 7.26%
A549 [39]
  fold change (FC): 0.68
A549 [40]
  Activity: 28.08%
